Strand notation (5' to 3'): a small letter for the sugar, then the base; units joined by * are phosphorothioate-linked, units joined directly phosphodiester-linked; [ ] holds rarer units or linkages, { } end groups; capitals alone tell only the bases. e = 2'-O-(2-methoxyethyl) (MOE); k = constrained ethyl (cEt); [5mC] = 5-methylcytosine; d = 2'-deoxy (DNA)
Legend:
[1] = system: human PKK mRNA; assay: Dose-dependent antisense inhibition of human PKK in HepaRG cells, 0.11-3.00 uM (Example 6); assay type: cell-based; details: for IC50: 0.11-3.00 μM; for percent inhibition of PKK mRNA, 0.11 μM / percent inhibition of PKK mRNA, 0.33 μM / percent inhibition of PKK mRNA, 1.00 μM / percent inhibition of PKK mRNA, 3.00 μM: electroporation, approx. 16 hours, relative to untreated control cells
How it was run: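 HepaRG cells were electroporated with antisense oligonucleotide at 0.11, 0.33, 1.00 or 3.00 μM. After about 16 h, PKK mRNA was quantified by qRT-PCR with primer probe set RTS3454 and normalized to total RNA by RIBOGREEN. IC50 was derived from the dose series.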

[2] = system: human PKK mRNA; assay: Antisense inhibition of human PKK mRNA in HepaRG cells, 1,000 nM, MOE/deoxy/cEt oligonucleotides (Example 3); assay type: cell-based
How it was run: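 HepaRG cells at 20,000 per well electroporated with 1,000 nM 16-mer MOE/cEt/deoxy gapmers (phosphorothioate, 5-methylcytosine). After about 24 h, PKK mRNA measured by qRT-PCR with primer probe set RTS3454, normalized to RIBOGREEN total RNA. Reported as percent inhibition versus untreated cells.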

[3] = HepaRG cells, electroporation with 1,000 nM antisense oligonucleotide, approximately 24 hours, primer probe set RTS3454, relative to untreated control cells, experiment of Table 23
[4] = Table 20, HepaRG cells, electroporation with 1,000 nM antisense oligonucleotide, approximately 24 hours, PKK mRNA by RT-PCR (RTS3454), relative to untreated control cells
[5] = Table 22 experiment, HepaRG cells, electroporation with 1,000 nM antisense oligonucleotide, approx. 24 hours, PKK mRNA by RT-PCR (RTS3454), relative to untreated control cells
[6] = Table 21 experiment, HepaRG cells, electroporation with 1,000 nM antisense oligonucleotide, approx. 24 hours, PKK mRNA by RT-PCR (RTS3454), relative to untreated control cells
[7] = Table 28, HepaRG cells, 1,000 nM antisense oligonucleotide, human PKK mRNA
[8] = HepaRG cells, electroporation with 1,000 nM antisense oligonucleotide, approximately 24 hours, primer probe set RTS3454, relative to untreated control cells, experiment of Table 24
[9] = HepaRG cells, electroporation with 1,000 nM antisense oligonucleotide, approx. 24 hours, PKK mRNA by RT-PCR (RTS3454), relative to untreated control cells, Table 25 experiment

| Substance | IC50 [1] [nM] | percent inhibition of PKK mRNA, 0.11 μM [1] [%] | percent inhibition of PKK mRNA, 0.33 μM [1] [%] | percent inhibition of PKK mRNA, 1.00 μM [1] [%] | % inhibition [2, 3] [%] | % inhibition [2, 4] [%] | % inhibition [2, 5] [%] | percent inhibition of PKK mRNA, 3.00 μM [1] [%] | % inhibition [2, 6] [%] | % inhibition [2, 7] [%] | % inhibition [2, 8] [%] | % inhibition ([2]; Table 30, human PKK mRNA, HepaRG cells, 1,000 nM antisense oligonucleotide) [%] | % inhibition [2, 9] [%] | % inhibition ([2]; Table 19, HepaRG cells, electroporation with 1,000 nM antisense oligonucleotide, approximately 24 hours, PKK mRNA by RT-PCR (RTS3454), relative to untreated control cells) [%] |
| --- | --- | --- | --- | --- | --- | --- | --- | --- | --- | --- | --- | --- | --- | --- |
| 547942 (eG*eG*kT*dG*dT*dG*d[5mC]*d[5mC]*dA*d[5mC]*dT*dT*dT*k[5mC]*kA*eG; antisense) [compound 547942] | 300 | 25 | 51 | 91 | 85 |  |  |  |  |  |  |  |  |  |
| 547862 (antisense eG*eA*k[5mC]*dT*d[5mC]*d[5mC]*dT*d[5mC]*dT*d[5mC]*dA*dT*dA*kT*k[5mC]*eA) [compound 547862] | 300 | 26 | 71 | 69 |  | 22 | 88 |  |  |  |  |  |  |  |
| 547943 (eT*eG*kG*dT*dG*dT*dG*d[5mC]*d[5mC]*dA*d[5mC]*dT*dT*kT*k[5mC]*eA; antisense) [compound 547943] | 200 | 33 | 70 | 87 | 83 |  |  | 90 |  |  |  |  |  |  |
| 547824 (e[5mC]*eG*kA*dT*dG*dT*dA*d[5mC]*dT*dT*dT*dT*dG*kG*k[5mC]*eA; antisense) [compound 547824] |  | 45 | 73 | 78 |  |  |  |  | 82 |  |  |  |  |  |
| 548521 (antisense e[5mC]*eA*kG*d[5mC]*dT*d[5mC]*d[5mC]*d[5mC]*dT*dT*dA*d[5mC]*dT*kA*kG*eG) [compound 548521] | > 3000 | 21 | 0 | 3 |  |  |  | 1 |  | 61 |  |  |  |  |
| 548010 (eA*eG*kT*dG*dT*dT*dA*d[5mC]*dA*d[5mC]*dA*dA*dT*k[5mC]*kT*e[5mC]; antisense) [compound 548010] | 1400 | 0 | 11 | 49 |  |  |  | 64 |  |  | 80 |  |  |  |
| 547808 (e[5mC]*eA*kT*d[5mC]*dT*dG*dG*d[5mC]*dA*dG*dT*dA*dT*kT*kG*eG; antisense) [compound 547808] | 1100 | 19 | 22 | 48 |  |  |  | 71 | 56 |  |  |  |  |  |
| 547948 (eA*eG*kG*dA*dA*d[5mC]*dT*dT*dG*dG*dT*dG*dT*kG*k[5mC]*e[5mC]; antisense) [compound 547948] |  | 60 | 80 | 88 | 77 |  |  | 97 |  |  |  |  |  |  |
| 547843 (antisense e[5mC]*eA*k[5mC]*dT*dT*dA*dT*dT*dT*dG*dA*dT*dG*kA*k[5mC]*e[5mC]) [compound 547843] | 400 | 0 | 52 | 80 |  | 83 | 83 | 91 |  |  |  |  |  |  |
| 547922 (eT*eG*kG*dA*dG*dT*dG*dA*dG*dA*dA*d[5mC]*d[5mC]*k[5mC]*kT*eG; antisense) [compound 547922] |  | 67 | 75 | 81 | 79 |  |  | 92 |  |  |  |  |  |  |
| 548061 (eG*e[5mC]*kT*dT*dG*dT*dG*dT*d[5mC]*dA*d[5mC]*d[5mC]*dT*kT*kT*eG; antisense) [compound 548061] | 400 | 26 | 61 | 59 |  |  |  |  |  |  | 86 |  |  |  |
| 548055 (eG*eT*kA*dA*dT*dT*d[5mC]*dA*dA*dA*dG*dG*dA*kG*k[5mC]*e[5mC]; antisense) [compound 548055] | 300 | 43 | 57 | 50 |  |  |  | 88 |  |  | 78 |  |  |  |
| 548422 (antisense eG*eT*kA*dT*d[5mC]*dA*d[5mC]*dT*dG*dT*d[5mC]*d[5mC]*dT*kA*kT*eA) [compound 548422] | 700 | 0 | 32 | 71 |  |  |  | 93 |  |  |  | 69 |  |  |
| 548195 (eT*eT*k[5mC]*dT*dG*d[5mC]*d[5mC]*dA*dA*d[5mC]*dA*dG*dT*kT*kT*e[5mC]; antisense) [compound 548195] | 800 | 5 | 23 | 61 |  |  |  | 76 |  |  |  |  | 84 |  |
| 548109 (antisense eG*e[5mC]*kA*dT*d[5mC]*dT*dG*dA*dG*d[5mC]*dT*dT*dT*kT*k[5mC]*e[5mC]) [compound 548109] |  | 50 | 92 | 79 |  |  |  | 85 |  |  |  |  |  | 77 |
| 547997 (antisense eT*eT*kG*dT*dG*dT*d[5mC]*d[5mC]*d[5mC]*dA*dT*dA*d[5mC]*kG*k[5mC]*eA) [compound 547997] | 200 | 39 | 68 |  |  |  |  | 82 |  |  | 89 |  |  |  |
| 548170 (eA*eG*kT*dT*dG*d[5mC]*dG*dA*d[5mC]*d[5mC]*dT*d[5mC]*dG*k[5mC]*kA*eT; antisense) [compound 548170] | 2000 | 0 | 8 | 26 |  |  |  | 65 |  |  |  |  | 68 |  |
| 548004 (eA*eG*kT*dA*dA*d[5mC]*d[5mC]*dA*dG*dA*dG*d[5mC]*dT*k[5mC]*k[5mC]*e[5mC]; antisense) [compound 548004] | 300 | 24 | 47 | 80 |  |  |  | 92 |  |  | 80 |  |  |  |
| 547835 (e[5mC]*e[5mC]*kA*dG*dA*dA*dA*d[5mC]*dT*dG*d[5mC]*dA*d[5mC]*k[5mC]*kT*eG; antisense) [compound 547835] | 900 | 44 | 27 | 53 |  |  |  | 79 | 81 |  |  |  |  |  |
| 548479 (eA*eG*kG*d[5mC]*d[5mC]*dA*dT*dT*dT*dG*dA*dT*d[5mC]*k[5mC]*kG*eA; antisense) [compound 548479] | 400 | 2 | 52 | 82 |  |  |  | 97 |  | 68 |  |  |  |  |
